Reference: the supplement of paper PMC13380429

Legend:
[1] = system: A549-ACE2 infected with SARS-CoV-2; experiment: SARS-CoV-2 infection rate relative to DMSO; higher = more infection; details: 24 h
[2] = system: A549-ACE2 infected with SARS-CoV-2; experiment: morphology score (similarity to uninfected cells); higher = more like uninfected cells; details: 24 h
[3] = system: A549-ACE2 infected with SARS-CoV-2; experiment: cell count relative to DMSO; higher = less toxic; details: 24 h
[4] = system: A549-ACE2; experiment: drug-induced phospholipidosis relative to tamoxifen; higher = more phospholipidosis
[5] = system: Vero E6; experiment: drug sensitivity score (DSS) for viability; higher = more toxic; extreme values may be limits of the assay; details: 72 h
[6] = system: Calu-3; experiment: as above; details: 72 h
[7] = system: U2OS; experiment: as above; details: 72 h
[8] = system: Caco-2; experiment: as above; details: 72 h
[9] = system: HepG2; experiment: as above; details: 72 h
[10] = system: Vero E6; experiment: cell viability relative to DMSO; higher = less toxic; details: 72 h
[11] = system: Calu-3; experiment: as above; details: 72 h
[12] = system: U2OS; experiment: as above; details: 72 h
[13] = system: Caco-2; experiment: as above; details: 72 h
[14] = system: HepG2; experiment: as above; details: 72 h
[15] = system: U2OS; experiment: relative viability EC50 (midpoint between 100% and the lowest measured viability); higher = less toxic; details: 72 h
[16] = system: HepG2; experiment: as above; details: 72 h
[17] = system: A549-ACE2; experiment: phospholipidosis EC50; higher = less potent phospholipidosis inducer
[18] = system: Vero E6; experiment: relative viability EC50 (midpoint between 100% and the lowest measured viability); higher = less toxic; details: 72 h
[19] = system: Calu-3; experiment: as above; details: 72 h
[20] = system: Caco-2; experiment: as above; details: 72 h

Cn1cc(-c2ccc3c(c2)CCN3C(=O)Cc2cccc(C(F)(F)F)c2)c2c(N)ncnc21
Details	SARS-CoV-2 infection rate, [1] [%]	cell count, [3] [%]	cell viability, [10] [%]	cell viability, [11] [%]	cell viability, [12] [%]	cell viability, [13] [%]	cell viability, [14] [%]	morphology score, [2]
1 nM	–	–	95.3	106	103	100	87.4	–
10 nM	–	–	94	94	97.4	86.6	98.3	–
0.1 µM	102	97	–	–	–	–	–	0.02
100 nM	–	–	96.6	96	102	66.9	84	–
0.3 µM	96	104	–	–	–	–	–	0.18
1 µM	102	105	–	–	–	–	–	0.12
1000 nM	–	–	107	92.5	95.2	103	101	–
3 µM	87	112	–	–	–	–	–	0.4
10000 nM	–	–	67.1	68.9	77.3	61.6	48.6	–

drug-induced phospholipidosis [%], [4]
Details	0.3 µM	0.833333 µM	3.33333 µM	6.66667 µM	10 µM	30 µM
24 h	1.57	0.73	1.92	3.67	12.1	28.6
48 h	3.63	1.52	3.02	3.48	8.65	18.6
72 h	2.2	0.314	1.31	3.34	7.89	22.2

Details	drug sensitivity score	relative viability EC50 [µM]
[5]	1.2	–
[6]	2.4	–
[7]	1.5	–
[8]	4.7	–
[9]	2.6	–
[15]	–	> 10
[16]	–	3.28

CN1CCC[C@@H](CC2c3ccccc3Sc3ccccc32)C1 (racemic) [metixene]
Details	SARS-CoV-2 infection rate [%]	cell count [%]	cell viability [%]	morphology score	phospholipidosis EC50 [µM]
[1], 0.1 µM	94	–	–	–	–
[1], 0.3 µM	103	–	–	–	–
[1], 1 µM	65	–	–	–	–
[1], 3 µM	30	–	–	–	–
[2], 0.1 µM	–	–	–	0.09	–
[2], 0.3 µM	–	–	–	-0.03	–
[2], 1 µM	–	–	–	0.65	–
[2], 3 µM	–	–	–	0.88	–
[3], 0.1 µM	–	106	–	–	–
[3], 0.3 µM	–	99	–	–	–
[3], 1 µM	–	110	–	–	–
[3], 3 µM	–	129	–	–	–
[10], 1 nM	–	–	96.6	–	–
[10], 10 nM	–	–	109	–	–
[10], 100 nM	–	–	105	–	–
[10], 1000 nM	–	–	101	–	–
[10], 10000 nM	–	–	74	–	–
[11], 1 nM	–	–	102	–	–
[11], 10 nM	–	–	100	–	–
[11], 100 nM	–	–	100	–	–
[11], 1000 nM	–	–	100	–	–
[11], 10000 nM	–	–	73.1	–	–
[12], 1 nM	–	–	105	–	–
[12], 10 nM	–	–	95.3	–	–
[12], 100 nM	–	–	99.4	–	–
[12], 1000 nM	–	–	93.2	–	–
[12], 10000 nM	–	–	89.8	–	–
[13], 1 nM	–	–	85.9	–	–
[13], 10 nM	–	–	94.5	–	–
[13], 100 nM	–	–	94.7	–	–
[13], 1000 nM	–	–	120	–	–
[13], 10000 nM	–	–	71.9	–	–
[14], 1 nM	–	–	104	–	–
[14], 10 nM	–	–	104	–	–
[14], 100 nM	–	–	105	–	–
[14], 1000 nM	–	–	101	–	–
[14], 10000 nM	–	–	72.3	–	–
[17], 24 h	–	–	–	–	5.44
[17], 48 h	–	–	–	–	9.46
[17], 72 h	–	–	–	–	4.98

drug-induced phospholipidosis [%], [4]
Details	0.3 µM	0.833333 µM	3.33333 µM	6.66667 µM	10 µM	30 µM
24 h	0.41	9.1	52.9	78.2	91.4	121
48 h	4.61	5.46	39.9	75.4	93.7	145
72 h	4.08	3.27	28.5	66.5	82.7	–

Details	drug sensitivity score	relative viability EC50 [µM]
[5]	0.9	–
[6]	1.1	–
[7]	0	–
[8]	0.6	–
[9]	1.1	–
[15]	–	> 10

NCCc1c[nH]c2ccc(C(N)=O)cc12 [5-carboxamidotryptamine]
Details	SARS-CoV-2 infection rate, [1] [%]	cell count, [3] [%]	cell viability, [10] [%]	cell viability, [11] [%]	cell viability, [12] [%]	cell viability, [13] [%]	cell viability, [14] [%]	morphology score, [2]
1 nM	–	–	98.8	93.2	101	97.8	105	–
10 nM	–	–	104	104	97.8	96.5	96.2	–
100 nM	–	–	103	96	99.1	102	95.2	–
0.3 µM	100	98	–	–	–	–	–	-0.09
1000 nM	–	–	97.4	104	98	102	102	–
3 µM	99	96	–	–	–	–	–	-0.06
10 µM	101	105	–	–	–	–	–	-0.11
10000 nM	–	–	97.2	102	99.5	98.7	98.9	–
30 µM	93	102	–	–	–	–	–	0.09

drug-induced phospholipidosis [%], [4]
Details	0.3 µM	0.833333 µM	3.33333 µM	6.66667 µM	10 µM	30 µM
24 h	1.09	-2.6	-3.13	-2	-0.66	2.03
48 h	2.16	-0.39	0.18	-1.08	-0.13	2.67
72 h	3.22	-1.61	-0.768	-1.96	0.562	3.08

Details	drug sensitivity score	relative viability EC50 [µM]
[5]	0	–
[6]	0	–
[7]	0	–
[8]	0	–
[9]	0	–
[15]	–	> 10
[16]	–	> 10
[18]	–	> 10
[19]	–	> 10
[20]	–	> 10
